This is an account of results in ChEMBL document CHEMBL4342421, “Current scenario of tetrazole hybrids for antibacterial activity” (Eur J Med Chem, 2019).

Experiment [1] deals with Escherichia coli. The experiment in a line: Antimicrobial activity against Escherichia coli. The class given is functional.
In experiment [2] the test system is Bacillus subtilis. The experiment in a line: Antimicrobial activity against Bacillus subtilis. The class given is functional.
Another experiment concerns Salmonella typhimurium. The experiment in a line: Antimicrobial activity against Salmonella typhimurium. The format is functional, Salmonella enterica subsp. enterica serovar Typhimurium. The conditions noted are these: Salmonella enterica.
The test system of a further experiment is Priestia megaterium. The experiment can be described thus: Antimicrobial activity against Bacillus megaterium. The format is functional.
The subject of experiment [3] is Micrococcus luteus. The experiment in a line: Antibacterial activity against Micrococcus luteus. The class given is functional.
The next experiment has as its system SiHa. The experiment can be described thus: Growth inhibition of human SiHa cells. The class given is functional.
The next experiment has as its system MDA-MB-231. The experiment can be described thus: Growth inhibition of human MDA-MB-231 cells. The class given is functional.
The subject of another experiment is PANC-1. The experiment in a line: Growth inhibition of human PANC1 cells. The class given is functional.
The subject of experiment [4] is Staphylococcus aureus. The experiment can be described thus: Antimicrobial activity against Staphylococcus aureus ATCC 25923 assessed as zone of inhibition at 100 ug/ml after 24 hrs by disc diffusion method. The class given is functional. The conditions noted are these: ATCC 25923, 24 h, read-out: IZ.
In the next experiment the test system is Klebsiella pneumoniae. The experiment can be described thus: Antimicrobial activity against Klebsiella pneumoniae ATCC 700603 assessed as zone of inhibition at 100 ug/ml after 24 hrs by disc diffusion method. The note with it: ATCC 700603, 24 h, read-out: IZ. The class given is functional. A general note: In agar diffusion tests the substance spreads into inoculated agar from a disc or well.

The next experiment deals with Streptococcus agalactiae. The experiment in a line: Antimicrobial activity against Streptococcus agalactiae 55118 assessed as zone of inhibition at 100 ug/ml after 24 hrs by disc diffusion method. The class given is functional. The conditions noted are these: Streptococcus agalactiae, 55118, 24 h; read-out: IZ.
For experiment [5], the system named is Pseudomonas aeruginosa. The experiment in a line: Antimicrobial activity against Pseudomonas aeruginosa. The class given is functional.
Experiment [6] concerns Staphylococcus aureus. The experiment can be described thus: Antimicrobial activity against Staphylococcus aureus. The class given is functional.
Experiment [7] concerns Candida albicans. The experiment can be described thus: Antifungal activity against Candida albicans. The class given is functional.
The subject of the next experiment is Nakaseomyces glabratus. The experiment can be described thus: Antifungal activity against Candida glabrata. The class given is functional.
The test system of the next experiment is Candida tropicalis. The experiment in a line: Antifungal activity against Candida tropicalis. The format is functional.
The subject of experiment [8] is Staphylococcus aureus. The experiment in a line: Antibacterial activity against methicillin resistant Staphylococcus aureus N315 after 24 hrs by two-fold broth serial dilution method. The class given is functional. The conditions noted are these: N315, 24 h.
Experiment [9] deals with Bacillus subtilis. The experiment can be described thus: Antibacterial activity against Bacillus subtilis ATCC 21216 after 24 hrs by two-fold broth serial dilution method. The format is functional. The note with it: ATCC 21216, 24 h.
In experiment [10] the test system is Micrococcus luteus. The experiment in a line: Antibacterial activity against Micrococcus luteus ATCC 4698 after 24 hrs by two-fold broth serial dilution method. The note with it: ATCC 4698, 24 h. The class given is functional.
For experiment [11], the system named is Escherichia coli. The experiment can be described thus: Antimicrobial activity against Escherichia coli JM 109 after 24 hrs by two-fold broth serial dilution method. The format is functional. The conditions noted are these: JM 109, 24 h.
Experiment [12] relates to Pseudomonas aeruginosa. The experiment can be described thus: Antimicrobial activity against Pseudomonas aeruginosa ATCC 27853 after 24 hrs by two-fold broth serial dilution method. The class given is functional. The conditions noted are these: ATCC 27853, 24 h.
The next experiment deals with Shigella dysenteriae. The experiment can be described thus: Antimicrobial activity against Shigella dysenteriae after 24 hrs by two-fold broth serial dilution method. The format is functional.
For experiment [13], the system named is Candida albicans. The experiment in a line: Antifungal activity against Candida albicans ATCC 76615 after 24 hrs. The format is functional. The conditions noted are these: ATCC 76615, 24 h.
For a further experiment, the system named is Cyberlindnera jadinii. The experiment can be described thus: Antifungal activity against Candida utilis after 24 hrs. The format is functional. The note with it: Williopsis jadinii.
The next experiment relates to Aspergillus flavus. The experiment can be described thus: Antifungal activity against Aspergillus flavus after 24 hrs. The class given is functional.
The subject of a further experiment is Saccharomyces cerevisiae. The experiment can be described thus: Antifungal activity against Saccharomyces cerevisiae after 24 hrs. The class given is functional.
The subject of another experiment is Pichia norvegensis. The experiment in a line: Antifungal activity against Candida mycoderma after 24 hrs. The format is functional.
Experiment [14] relates to Escherichia coli. The experiment in a line: Antimicrobial activity against Escherichia coli assessed as zone of inhibition at 50 ug/ml. The note with it: read-out: IZ. The class given is functional.
Experiment [15] concerns Staphylococcus aureus. The experiment can be described thus: Antimicrobial activity against Staphylococcus aureus assessed as zone of inhibition at 50 ug/ml. The format is functional. The note with it: read-out: IZ.
In experiment [16] the test system is Aspergillus niger. The experiment can be described thus: Antifungal activity against Aspergillus niger assessed as zone of inhibition at 50 ug/ml. The class given is functional. The conditions noted are these: read-out: IZ.
Experiment [17] has as its system Candida albicans. The experiment in a line: Antifungal activity against Candida albicans assessed as zone of inhibition at 50 ug/ml. The note with it: read-out: IZ. The format is functional.
The subject of experiment [18] is Aspergillus niger. The experiment in a line: Antifungal activity against Aspergillus niger. The class given is functional.

Structures are written as SMILES. Values after ≈ are worked out from the molar mass of the structure shown.

Consider `O=C(O)c1cn(C2CC2)c2cc(N3CCN(C(=O)CCSc4nnnn4-c4ccc(Br)cc4)CC3)c(F)cc2c1=O`, for which the MIC in the experiment on Escherichia coli [1], with Bacillus subtilis [2], in the experiment with Salmonella typhimurium, in the experiment with Priestia megaterium and against Micrococcus luteus [3] was 15.6 µg/mL (≈ 24.3 µM) in each case. Also, the GI50 in the experiment on SiHa, with MDA-MB-231 and in the experiment with PANC-1 was no more than 1000 nM throughout.

For the molecule `COc1nc(N)nc(OC)c1Sc1nnnn1CC1CC1`, the zone of inhibition at 100 µg/mL with Staphylococcus aureus [4], with Klebsiella pneumoniae and in the experiment on Streptococcus agalactiae was 10 to 24 mm throughout.

In the case of `COc1nc(N)nc(OC)c1Sc1nnnn1Cc1ccccc1`, the zone of inhibition at 100 µg/mL in the experiment with Staphylococcus aureus [4], in the experiment on Klebsiella pneumoniae and in the experiment with Streptococcus agalactiae was 10 to 24 mm each time.

As to `Cc1cc2c(=O)c(OCc3nnn[nH]3)c(-c3ccc(F)cc3)oc2cc1Cl`, the minimal inhibitory concentration (MIC) (as a rule, the lowest concentration that inhibits growth of the organism) against Escherichia coli [1] lay within 50 to 400 µg/mL (≈ 129 to 1030 µM); against Pseudomonas aeruginosa [5], 50 to 400 µg/mL (≈ 129 to 1030 µM); in the experiment on Staphylococcus aureus [6], 50 to 400 µg/mL (≈ 129 to 1030 µM); against Bacillus subtilis [2], 50 to 400 µg/mL (≈ 129 to 1030 µM); against Candida albicans [7], 12.5 to 25 µg/mL (≈ 32.3 to 64.6 µM); against Nakaseomyces glabratus it was 12.5 to 25 µg/mL (≈ 32.3 to 64.6 µM). This molecule also gave an MIC in the experiment with Candida tropicalis of 12.5 to 25 µg/mL (≈ 32.3 to 64.6 µM).

`CCCCCCn1nnnc1Sc1c(OC)nc(N)nc1OC`: the zone of inhibition at 100 µg/mL in the experiment on Staphylococcus aureus [4], with Klebsiella pneumoniae and with Streptococcus agalactiae was 10 to 24 mm in each case.

With `Cc1cc(=O)oc2cc(OCC(O)Cn3nnnc3C)cc(OCC(O)Cn3nnnc3C)c12` (stereo not drawn), the MIC with Staphylococcus aureus [8], against Bacillus subtilis [9], in the experiment on Micrococcus luteus [10], in the experiment on Escherichia coli [11], in the experiment on Pseudomonas aeruginosa [12] and in the experiment on Shigella dysenteriae was 32 to 512 µg/mL (≈ 67.7 to 1080 µM) each time. Further, the MIC against Candida albicans [13], in the experiment on Cyberlindnera jadinii, against Aspergillus flavus, against Saccharomyces cerevisiae and in the experiment with Pichia norvegensis was 32 to 512 µg/mL (≈ 67.7 to 1080 µM) throughout.

`Cc1cc(=O)oc2cc(OCC(O)Cn3cnnn3)cc(OCC(O)Cn3cnnn3)c12` (stereo not drawn): the MIC with Staphylococcus aureus [8], against Bacillus subtilis [9], against Micrococcus luteus [10], against Escherichia coli [11], with Pseudomonas aeruginosa [12] and in the experiment with Shigella dysenteriae was 32 to 512 µg/mL (≈ 72 to 1150 µM) in each case. For the same molecule, the MIC in the experiment on Candida albicans [13], against Cyberlindnera jadinii, against Aspergillus flavus, in the experiment with Saccharomyces cerevisiae and with Pichia norvegensis was 32 to 512 µg/mL (≈ 72 to 1150 µM) throughout.

Consider `O=C(O)c1cn(C2CC2)c2cc(N3CCNCC3)c(F)cc2c1=O` [CIPROFLOXACIN], for which the MIC against Escherichia coli [1], against Pseudomonas aeruginosa [5], with Staphylococcus aureus [6], against Salmonella typhimurium, against Candida albicans [7] and against Aspergillus niger [18] was 25 to 50 µg/mL (≈ 75.4 to 151 µM) throughout. The MIC with Priestia megaterium and in the experiment with Micrococcus luteus [3] was 25 to 50 µg/mL (≈ 75.4 to 151 µM) each time. Moreover, the zone of inhibition at 50 µg/mL in the experiment on Escherichia coli [14], in the experiment with Staphylococcus aureus [15], in the experiment with Aspergillus niger [16] and in the experiment with Candida albicans [17] was 19 to 20 mm in each case.

With `CC[C@H]1OC(=O)[C@H](C)[C@@H](O[C@H]2C[C@@](C)(OC)[C@@H](O)[C@H](C)O2)[C@H](C)[C@@H](O[C@@H]2O[C@H](C)C[C@H](N(C)C)[C@H]2O)[C@](C)(O)C[C@@H](C)C(=O)[C@H](C)[C@@H](O)[C@]1(C)O` [ERYTHROMYCIN], the zone of inhibition at 100 µg/mL in the experiment with Staphylococcus aureus [4], with Klebsiella pneumoniae and with Streptococcus agalactiae was 10 to 24 mm in each case.

For the molecule `Clc1ccc(COC(Cn2ccnc2)c2ccc(Cl)cc2Cl)c(Cl)c1` (stereo not drawn) [MICONAZOLE], the MIC against Candida albicans [7], in the experiment with Nakaseomyces glabratus and against Candida tropicalis was 12.5 to 800 µg/mL (≈ 30 to 1920 µM) in each case.

For `CCn1cc(C(=O)O)c(=O)c2cc(F)c(N3CCNCC3)cc21` [NORFLOXACIN], the MIC against Staphylococcus aureus [8], against Bacillus subtilis [9], against Micrococcus luteus [10], in the experiment with Escherichia coli [11], against Pseudomonas aeruginosa [12] and in the experiment with Shigella dysenteriae was 1 to 16 µg/mL (≈ 3.13 to 50.1 µM) in each case. Also, the MIC in the experiment with Candida albicans [13], against Cyberlindnera jadinii, against Aspergillus flavus, against Saccharomyces cerevisiae and with Pichia norvegensis was 1 to 16 µg/mL (≈ 3.13 to 50.1 µM) throughout.

With `CC/C(=C(\c1ccccc1)c1ccc(OCCN(C)C)cc1)c1ccccc1` [TAMOXIFEN], the GI50 with SiHa, with MDA-MB-231 and in the experiment with PANC-1 was 120 to 240 nM each time.
